The values below are quoted from earlier work in PMC9736374, “Design, Synthesis and Antimicrobial Properties of New Tetracyclic Quinobenzothiazine Derivatives” (International Journal of Molecular Sciences, 2022).

The data set relates to MRSA 63718. Set-up: method as in PMID 25692135. The settings on record: cited from earlier work.

Turning to `CN[C@H](CC(C)C)C(=O)N[C@H]1C(=O)N[C@@H](CC(N)=O)C(=O)N[C@H]2C(=O)N[C@H]3C(=O)N[C@H](C(=O)N[C@H](C(=O)O)c4cc(O)cc(O)c4-c4cc3ccc4O)[C@H](O)c3ccc(c(Cl)c3)Oc3cc2cc(c3O[C@@H]2O[C@H](CO)[C@@H](O)[C@H](O)[C@H]2O[C@H]2C[C@](C)(N)[C@H](O)[C@H](C)O2)Oc2ccc(cc2Cl)[C@H]1O` [vancomycin], the MIC of vancomycin is 2 µg/mL.
